Legend:
monoamine oxydase = target: T1, monoamine oxydase (Rattus norvegicus, UniProt P21396); assay: inhibition of the activity of the monoamine oxydase in vitro on homogenates of rat brain (serotonin as substrate); type: biochemical; details: serotonin as substrate at 480 μM, read-out: Test in vitro IC50
T1 construct: in vitro on homogenates of rat brain; from tissue; host or cells: rat brain homogenate
T1 sequence (P21396 1-526): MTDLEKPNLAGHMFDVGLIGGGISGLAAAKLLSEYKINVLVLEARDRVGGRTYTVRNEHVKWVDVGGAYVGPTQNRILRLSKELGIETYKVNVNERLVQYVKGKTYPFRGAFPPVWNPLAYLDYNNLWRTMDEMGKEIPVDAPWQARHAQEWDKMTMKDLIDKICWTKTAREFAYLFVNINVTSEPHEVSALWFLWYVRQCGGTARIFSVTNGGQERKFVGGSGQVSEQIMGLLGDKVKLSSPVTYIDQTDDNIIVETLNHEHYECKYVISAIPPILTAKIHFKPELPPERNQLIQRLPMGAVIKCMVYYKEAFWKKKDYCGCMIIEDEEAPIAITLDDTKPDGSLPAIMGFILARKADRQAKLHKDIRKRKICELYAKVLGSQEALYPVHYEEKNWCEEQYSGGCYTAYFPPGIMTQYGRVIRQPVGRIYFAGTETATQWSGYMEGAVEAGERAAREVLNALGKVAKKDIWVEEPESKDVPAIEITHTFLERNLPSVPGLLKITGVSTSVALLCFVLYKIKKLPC
Description: in vitro on homogenates of rat brain, by measuring the concentration of the product inhibiting by 50% (IC50) the activity of the monoamine oxydase utilising serotonin as substrate at 480 μM, according to the method described by M. STROLIN BENEDETTI. T. BOUCHER and C. J. FOWLER in Naunyn--Schmiedebergs Archiv. of Pharm. (1983) 323, 315-320;

[1] = system: effects of serotonin (precursor hydroxy-5 tryptophan, 5-HTP); assay: potentiation of hydroxy-5 tryptophan (5-HTP): generalised trembling or stereotypies in rats; details: Rattus norvegicus, oral, 1 h before 120 mg/kg i.p. 5-HTP, generalised trembling or stereotypies in 50% of the animals, read-out: Test in vivo ED50
Description: in vivo by determining in rats the dose of the product which, administered orally, causes in 50% of the animals (ED50) the appearance of generalised trembling or stereotypies (finger-tapping as on a piano, movements of the head) following the intraperitoneal administration 1 h after the first treatment of a dose of 120 mg/kg of hydroxy-5 tryptophan (5-HTP) [M. JALFRE, B. BUCHER, A. COSTON, G. MOCQUET, R. D. PORSOLT, Arch. Int. Pharmacodyn., (1982), 259, 194-221].

LD50 in mice, oral = details: mouse, in vivo

| SMILES | IC50 (monoamine oxydase) | ED50 [1] | LD50 (LD50 in mice, oral) |
| --- | --- | --- | --- |
| C=C[C@H]1OC(=O)N2c3ccccc3CC[C@@H]12 (relative stereo) [MD 200502, ethenyl-3 tetrahydro-3,3a,4,5 1H-oxazolo [3,4-a] quinoline-one-1] | 500 nM | – | – |
| C=C[C@@H]1OC(=O)N2c3ccccc3CC[C@@H]12 (relative stereo) [MD 200503, ethenyl-3 tetrahydro-3,3a,4,5 1H-oxazolo [3,4-a] quinoline-one-1] | 57 nM | 20 mg/kg | – |
| O=C1O[C@H](CO)[C@@H]2CCc3ccccc3N12 (relative stereo) [MD 200504, cis hydroxymethyl-3 tetrahydro-3,3a,4,5 1H-oxazolo [3,4-a] quinoline-one-1] | – | 7.8 mg/kg | – |
| O=C1O[C@H](CO)[C@@H]2Cc3ccccc3N12 (relative stereo) [MD 200602] | 2800 nM | – | – |
| COC[C@H]1OC(=O)N2c3ccccc3CC[C@@H]12 (relative stereo) [MD 200682, cis methoxymethyl-3 tetrahydro-3,3a,4,5 1H oxazolo [3,4-a] quinoline-one-1] | 90 nM | 2.3 mg/kg | – |
| O=C1O[C@@H](CO)[C@@H]2Cc3ccccc3N12 (relative stereo) [MD 200718] | 8700 nM | – | – |
| COc1ccc2c(c1)CC[C@H]1[C@@H](CO)OC(=O)N21 (relative stereo) [MD 280386, cis hydroxymethyl-3 methoxy-7 tetrahydro-3,3a,4,5 1H-oxazino [3, 4a] quinoline-one-1] | 19 nM | – | – |
| COc1ccc2c(c1)CC[C@H]1[C@H](CO)OC(=O)N21 (relative stereo) [MD 280387] | 75 nM | – | – |
| C=C[C@@H]1OC(=O)N2c3ccc(OC)cc3CC[C@@H]12 (relative stereo) [MD 280404, ethenyl-3 methoxy-7 tetrahydro-3,3a, 4,5 1H-oxazolo [3.4-a] quinoline-one-1] | 29 nM | 11 mg/kg | – |
| C[C@@H]1OC(=O)N2c3ccccc3CC[C@@H]12 (relative stereo) [MD 280430, trans methyl-3 tetrahydro-3,3a,4,5 1 H-oxazolo [3,4-a] quinoline-one-1] | 1400 nM | 105 mg/kg | – |
| COC[C@H]1OC(=O)N2c3ccc(OC)cc3CC[C@@H]12 (relative stereo) [MD 280448] | 9 nM | 1.8 mg/kg | – |
| COC[C@@H]1OC(=O)N2c3ccc(OC)cc3CC[C@@H]12 (relative stereo) [MD 280449] | 6 nM | – | 1120 mg/kg |
| COc1ccc2c(c1)CC[C@H]1[C@@H](CN)OC(=O)N21 (relative stereo) [MD 370024, cis aminomethyl-3 methoxy-7 tetrahydro-3,3a,4,5 1H-oxazolo [3,4-a] quinoline-one-2] | 1000 nM | – | – |
| COc1ccc2c(c1)CC[C@H]1[C@H](CN)OC(=O)N21 (relative stereo) [MD 370025] | 1600 nM | – | – |
| CNC[C@H]1OC(=O)N2c3ccc(OC)cc3CC[C@@H]12 (relative stereo) [MD 370026] | – | – | 263 mg/kg |
| CNC[C@@H]1OC(=O)N2c3ccc(OC)cc3CC[C@@H]12 (relative stereo) [MD 370027] | – | 5.8 mg/kg | – |
| O=C1O[C@@H](CO)[C@@H]2CCc3ccc(Cl)cc3N12 (relative stereo) [MD 370335] | 97 nM | – | – |
| O=C1O[C@H](CO)[C@@H]2CCc3ccc(Cl)cc3N12 (relative stereo) [MD 370336] | 80 nM | – | – |
